Assays:
[1] = DTI (dye transfer inhibition) test, white cotton in wash liquor with dissolved test dye; details: complex 20 μmol/l wash liquor, 8.6 mmol/l H2O2, 40° C., 30 min; for DTI effect a(%) Dye 1: Direct Brown 172 10 mg/l of the 250% formulation; for DTI effect a(%) Dye 2: Reactive Blue 238 6 mg/l of the 100% formulation
Method: The catalysts were tested for DTI activity. The DTI (dye transfer inhibition) effect a is defined as the following percentage:
a=([Y(E)−Y(A)]/[Y(W)−Y(A)])*100
where Y(W), Y(A) and Y(E) are the CIE lightnesses of the white material, of the material treated without added catalyst and of the material treated with added catalyst, in that order. a=0 characterizes a product of nil utility, the inclusion of which in the wash liquor does nothing to impede dye transfer. a=100%, by contrast, defines a perfect catalyst, which completely suppresses the tainting of the white material.
The test data are determined using the following testing system: 7.5 g of white cotton are treated in 80 ml of wash liquor. This liquor contains the standard detergent ECE phosphate-free (456 IEC) EMPA, Switzerland, in a concentration of 7.5g/l, 8.6 mmol/l H2O2, and a solution of the test dye. The washing process is carried out in a pot in a LINITEST apparatus at 40° C. for 30 min. Commercially available Direct Brown 172 (dye 1) at 10 mg/l of the 250% formulation or Reactive Blue 238 (dye 2) at 6 mg/l of the 100% formulation were used as test dyes. The reflectants spectra of the samples were measured with a SPECTRAFLASH 2000 and transformed into D65/10 lightnesses by the CIE standard procedure.
The manganese complexes are synthesized either as described in Example 13 or in situ by adding the corresponding manganese(III) salt in ethanolic solution. The complexes are always used at 20 μmol/l wash liquor. It is evident from the table that the recited catalysts are very effective DTI catalysts. […]

[2] = Bleach test, tea stain on cotton fabric; details: 100 μmol/l ligand; 8.6 mmol/l hydrogen peroxide; 40° C., 30 minutes; H2O2 only gives 18
Method: The bleach tests are carried out as follows: 7.5 g of white cotton fabric and 2.5 g of a tea stain on cotton fabric are treated in 80 ml of wash liquor. This liquor contains the standard laundry detergent ECE phosphate-free (456 IEC) EMPA, Switzerland in a concentration of 7.5 g/l, hydrogen peroxides in a concentration of 8.6 mmol/l and optionally 100 μmol/l of one of the ligands according to the invention. The washing process takes place in a steel pot in a LINITEST apparatus at 40° C. for 30 minutes. The bleaching results are evaluated using the increase in lightness DY (lightness difference as per CIE) of the stain due to the treatment.

| SMILES | DTI effect a(%) Dye 1 [1] | DTI effect a(%) Dye 2 [1] | DY with H2O2 and ligand (increase in lightness of the stain) [2] |
| --- | --- | --- | --- |
| CCN(C)c1ccc(C=NCCN(CCN=Cc2ccc(N(C)CC)cc2O)CC/N=C/c2ccc(N(C)CC)cc2O)c(O)c1 [Example 8, N,N′,N″-Tris[(4-N-methyl-N-ethylamino)salicylideneaminoethyl]amine] | 85% | 81% | 22 |
| CC(C)N(C)c1ccc(C=NCCN(CCN=Cc2ccc(N(C)C(C)C)cc2O)CC/N=C/c2ccc(N(C)C(C)C)cc2O)c(O)c1 [Example 7, N,N′,N″-Tris[(4-N-methyl-N-isopropylamino)salicylideneaminoethyl]amine] | 84% | 83% | 21 |
| C[N+](C)(C)c1ccc(C=NCCN(CCN=Cc2ccc([N+](C)(C)C)cc2O)CC/N=C/c2ccc([N+](C)(C)C)cc2O)c(O)c1.[Br-].[Br-].[Br-] [Example 10, N,N′, N″-Tris[4-trimethylammoniosalicylideneaminoethyl]amine tribromide] | 90% | 96% | – |
| CCN(CC)c1ccc(C=NCCN(CCN=Cc2ccc(N(CC)CC)cc2O)CC/N=C/c2ccc(N(CC)CC)cc2O)c(O)c1 [Example 2, N,N′,N″-Tris[4-N-diethylaminosalicylideneaminoethyl]amine] | 78% | 73% | 21 |
| CN(C)c1ccc(/C=N\CCN(CC/N=C/c2ccc(N(C)C)cc2O)CC/N=C/c2ccc(N(C)C)cc2O)c(O)c1 [Example 3, N,N′,N″-Tris[4-N-dimethylaminosalicylideneaminoethyl]amine] | 85% | 80% | 22 |
| Cc1ccc(C=NCCN(CCN=Cc2ccc(C)cc2O)CC/N=C/c2ccc(C)cc2O)c(O)c1 [Example 9, N,N′,N″-Tris[4-methylsalicylideneaminoethyl]amine] | 87% | 94% | – |
| O=S(=O)([O-])c1ccc(O)c(C=NCCN(CCN=Cc2cc(S(=O)(=O)[O-])ccc2O)CC/N=C/c2cc(S(=O)(=O)[O-])ccc2O)c1.[Na+].[Na+].[Na+] [Example 12, N,N′,N″-Tris[5-sulfonatosalicylideneaminoethyl]amine, trisodium salt] | 80% | 99% | – |
| COc1ccc(/C=N\CCN(CC/N=C/c2ccc(OC)cc2O)CC/N=C/c2ccc(OC)cc2O)c(O)c1 [Example 4, N,N′,N″-Tris[4-methoxysalicylideneaminoethyl]amine] | 83% | 67% | – |
| C[N+](C)(C)c1ccc(O)c(C=NCCN(CCN=Cc2cc([N+](C)(C)C)ccc2O)CC/N=C/c2cc([N+](C)(C)C)ccc2O)c1.[Br-].[Br-].[Br-] [Example 11, N,N′,N″-Tris[5-trimethylammoniosalicylideneaminoethyl]amine tribromide] | 86% | 94% | – |
| Oc1ccc(/C=N\CCN(CC/N=C/c2ccc(O)cc2O)CC/N=C/c2ccc(O)cc2O)c(O)c1 [Example 5, N,N′,N″-Tris[4-hydroxysalicylideneaminoethyl]amine] | 78% | 27% | – |
| Oc1ccccc1/C=N\CCN(CC/N=C/c1ccccc1O)CC/N=C/c1ccccc1O [Example 1, N,N′,N″-Tris[salicylideneaminoethyl]amine] | 91% | 96% | – |
| O=[N+]([O-])c1ccc(O)c(C=NCCN(CCN=Cc2cc([N+](=O)[O-])ccc2O)CC/N=C/c2cc([N+](=O)[O-])ccc2O)c1 [Example 6, N,N′, N″-Tris[5-nitrosalicylideneaminoethyl]amine] | 70% | 80% | – |

Reference: US6800775B1, “Metal complexes of tripodal ligands” (Ciba Specialty Chemicals Corporation, priority 1999, dated 2004)
